The values that follow come from patent US7767814B2, “Substituted piperidine compounds and methods of their use” (Adolor Corporation, priority 2004, dated 2010).

For assay [1], the target named is cloned human δ opioid receptor (Homo sapiens, UniProt P41143). The settings on record: cloned human opioid receptors; background statement; read-out: Ki, inhibition of [3H]diprenorphine binding, δ receptor; cited from earlier work.
Assay [2] has as its target cloned human κ opioid receptor (Homo sapiens, UniProt P41145). The settings on record: cloned human opioid receptors; background statement; read-out: Ki, inhibition of [3H]diprenorphine binding, κ receptor; cited from earlier work.
The target in assay [3] is T1, cloned human μ opioid receptor (Homo sapiens, UniProt P35372).
T1 construct: expressed in transfected cells; membranes used
T1 sequence (P35372 whole entry): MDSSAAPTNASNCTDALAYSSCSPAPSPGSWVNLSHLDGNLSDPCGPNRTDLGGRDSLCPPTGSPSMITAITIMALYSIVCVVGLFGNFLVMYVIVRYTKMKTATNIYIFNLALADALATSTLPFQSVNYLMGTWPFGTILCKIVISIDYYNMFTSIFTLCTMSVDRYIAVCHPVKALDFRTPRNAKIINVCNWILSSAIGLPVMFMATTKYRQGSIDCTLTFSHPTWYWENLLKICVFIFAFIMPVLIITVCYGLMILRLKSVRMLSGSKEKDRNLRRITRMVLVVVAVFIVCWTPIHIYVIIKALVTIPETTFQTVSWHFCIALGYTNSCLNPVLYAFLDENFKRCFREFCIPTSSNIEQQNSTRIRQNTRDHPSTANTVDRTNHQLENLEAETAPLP
In words: [3H]diprenorphine receptor binding, cloned human μ opioid receptor. On the procedure: IC50 values were obtained by nonlinear analysis of the data using GraphPad Prism version 3.00 for Windows (GraphPad Software, San Diego). Ki values were obtained by Cheng-Prusoff corrections of IC50 values.
After dilution in buffer A and homogenization as before, membrane proteins (10-80 μg) in 250 μL were added to mixtures containing test compound and [^3H]diprenorphine (0.5 to 1.0 nM, 40,000 to 50,000 dpm) in 250 μL of buffer A in 96-well deep-well polystyrene titer plates (Beckman). […] The filters were rinsed 4 times with 1 mL of cold 50 mM Tris HCl, pH 7.8 and radioactivity remaining on the filters determined by scintillation spectroscopy. Nonspecific binding was determined by the minimum values of the titration curves and was confirmed by separate assay wells containing 10 μM naloxone.
To determine the equilibrium dissociation constant for the inhibitors (Ki), radioligand bound (cpm) in the presence of various concentrations of test compounds was measured. The concentration to give half-maximal inhibition (EC50) of radioligand binding was determined from a best nonlinear regression fit to the following equation, […]

pKi: −log10 of the molar value.

Chain of cloned human δ opioid receptor (P41143 whole entry): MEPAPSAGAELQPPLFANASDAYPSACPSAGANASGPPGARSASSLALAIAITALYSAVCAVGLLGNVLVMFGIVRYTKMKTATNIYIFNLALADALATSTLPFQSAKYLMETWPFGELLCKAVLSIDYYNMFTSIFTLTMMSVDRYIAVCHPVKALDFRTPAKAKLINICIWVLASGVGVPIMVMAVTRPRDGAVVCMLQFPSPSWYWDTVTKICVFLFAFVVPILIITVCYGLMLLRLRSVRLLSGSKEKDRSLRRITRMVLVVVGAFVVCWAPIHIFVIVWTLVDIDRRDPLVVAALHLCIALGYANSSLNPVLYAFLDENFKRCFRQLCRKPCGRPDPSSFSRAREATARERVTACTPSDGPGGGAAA
Chain of cloned human κ opioid receptor (P41145 whole entry): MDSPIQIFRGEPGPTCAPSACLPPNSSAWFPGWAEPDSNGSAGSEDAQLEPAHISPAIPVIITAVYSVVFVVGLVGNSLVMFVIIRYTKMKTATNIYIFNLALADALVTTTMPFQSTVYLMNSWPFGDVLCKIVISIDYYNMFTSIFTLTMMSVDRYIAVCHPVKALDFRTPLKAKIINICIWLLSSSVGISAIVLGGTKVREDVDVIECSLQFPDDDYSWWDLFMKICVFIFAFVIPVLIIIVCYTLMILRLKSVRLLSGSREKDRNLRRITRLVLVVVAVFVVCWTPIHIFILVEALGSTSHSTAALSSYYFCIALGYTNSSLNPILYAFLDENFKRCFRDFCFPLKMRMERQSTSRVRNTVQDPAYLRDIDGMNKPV

As usually defined, the pKi is the Ki on a negative log10 scale, so that one unit is a factor of ten. Turning to `C[C@H]1CN(C[C@H](Cc2ccccc2)C(=O)NCC(=O)O)CC[C@@]1(C)c1cccc(O)c1` [Alvimopan], the pKi was 8.00 in assay [1] and 7.04 in assay [2].
On to `C[C@H]1C2CCC[C@]1(c1cccc(O)c1)CCN2C[C@H](Cc1ccccc1)C(=O)NCC(=O)O` [Example 2, {2S-Benzyl-3-[5-(3-hydroxy-phenyl)-9-methyl-2-aza-bicyclo[3.3.1]non-2-yl]-propionylamino}-acetic acid], for which, in assay [3], the pKi is 8.82.
